Test results: the supplement of paper PMC10307832

What was measured:
Experiment in all cases: relative viability (nuclei count vs DMSO), 5 days (fraction); higher = more cells survive
[1] = compound: Cc1ccc(C(=O)Nc2cccc(C(F)(F)F)c2)cc1Nc1cncc(C(N)=O)c1 [ALW-II-49-7] + Cc1cc(Nc2cc(N3CCN(C)CC3)nc(Sc3ccc(NC(=O)C4CC4)cc3)n2)n[nH]1 [Tozasertib] (partner 0.1 µM)
How it was run: (§1)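 Dosing by pin tool came one day after lung cancer cell lines were seeded in 1536-well plates, using either one drug or a fixed anchor-drug dose plus five library-drug doses (not always all listed) in √10 steps. After 5 days, nuclei were counted on 4× images. Relative viability is treated-well nuclei count divided by vehicle-well nuclei count, and values are medians of duplicate plates.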

[2] = compound: C1CC1C(=O)NC2=NNC3=C2C=CC(=C3)C4=CC(=CC=C4)C(=O)NC5CC5 [XMD13-2] + CCNC(=O)c1noc(-c2cc(C(C)C)c(O)cc2O)c1-c1ccc(CN2CCOCC2)cc1 [Luminespib] (partner 0.01 µM)
How it was run: as §1

[3] = compound: Cc1ccc(C(=O)Nc2cccc(C(F)(F)F)c2)cc1Nc1cncc(C(N)=O)c1 [ALW-II-49-7] + CC1(C)CCC(c2ccc(Cl)cc2)=C(CN2CCN(c3ccc(C(=O)NS(=O)(=O)c4ccc(N[C@H](CCN5CCOCC5)CSc5ccccc5)c(S(=O)(=O)C(F)(F)F)c4)cc3)CC2)C1 [Navitoclax] (partner 0.5 µM)
How it was run: as §1

[4] = compound: C1CC1C(=O)NC2=NNC3=C2C=CC(=C3)C4=CC(=CC=C4)C(=O)NC5CC5 [XMD13-2] + CS(=O)(=O)N1CCN(Cc2cc3nc(-c4cccc5[nH]ncc45)nc(N4CCOCC4)c3s2)CC1 [Pictilisib] (partner 1 µM)
How it was run: as §1

Cell Line	relative viability ([1]; first compound 0.08 µM)	relative viability ([1]; first compound 0.253 µM)	relative viability ([1]; first compound 0.8 µM)	relative viability ([1]; first compound 2.53 µM)	relative viability ([1]; first compound 8 µM)	relative viability ([2]; first compound 0.05 µM)	relative viability ([2]; first compound 0.1581 µM)	relative viability ([2]; first compound 0.5 µM)	relative viability ([2]; first compound 1.581 µM)	relative viability ([2]; first compound 5 µM)	relative viability ([3]; first compound 0.08 µM)	relative viability ([3]; first compound 0.253 µM)	relative viability ([3]; first compound 0.8 µM)	relative viability ([3]; first compound 2.53 µM)	relative viability ([3]; first compound 8 µM)	relative viability ([4]; first compound 0.05 µM)	relative viability ([4]; first compound 0.1581 µM)	relative viability ([4]; first compound 0.5 µM)	relative viability ([4]; first compound 1.581 µM)	relative viability ([4]; first compound 5 µM)
201T	0.886	0.948	0.941	0.902	0.92	1.03	1.03	1.11	1.01	1.12	1.18	1.22	1.21	1.27	1.23	0.747	0.72	0.639	0.673	0.719
A549											1.2	1.21	1.33	1.15	1.21	0.677	0.508	0.565	0.477	0.504
A-427	0.18	0.204	0.21	0.177	0.204	1.08	0.846	0.94	0.945	0.849	1.07	0.942	0.998	0.994	1.05	0.871	0.732	0.797	0.537	0.558
ABC-1	0.172	0.179	0.162	0.197	0.191	0.477	0.919	0.611	0.545	0.325						0.946	0.744	0.706	0.791	0.3
BEN	0.331	0.524	0.512	0.515	0.632	0.53	0.437	0.384	0.246	0.289	0.111	0.0965	0.0694		0.0797	0.663	0.535	0.585	0.562	0.523
CAL-12T	0.289	0.406	0.389	0.274	0.308	0.373	0.832	0.933	0.286	0.75	1.15	1.08	1.2	1.42	1.17	0.531		0.339	0.327	0.371
COR-L23	0.206	0.193	0.17	0.15	0.15	0.883	0.581	0.592	0.769	0.607	1.14	0.954	1.04	0.805	1.27	0.8	0.72	0.857	0.818	0.64
COR-L 105	0.38	0.263	0.346	0.336	0.315	0.867	0.852	0.704	0.749	0.789	0.812	0.669	0.767	0.721	0.655	0.398	0.361	0.437	0.458	0.335
Calu-6											0.814	0.84	0.731	0.591	0.636	1.09	0.92	0.909	0.757	0.439
ChaGo-K-1	0.248	0.238	0.22	0.212	0.2	0.585	0.582	0.603	0.617	0.476	0.931	1.45	1.27	1.29	0.753	0.82	0.631	0.461		0.599
EBC-1											0.403	0.377	0.348	0.321	0.277	0.395	0.431	0.377	0.287	0.142
EKVX	0.323	0.413	0.344	0.322	0.381	0.978	0.887	0.982	0.906	0.738	0.942	0.888	0.832	0.502	1.08	0.476	0.401	0.434	0.42	0.388
EMC-BAC-2	0.267	0.273	0.276	0.203	0.199	1.36	1.1	1.05	1.14	1.04	0.972	1.19	1.18	1.01	1.07	0.596	0.497	0.531	0.505	0.413
EPLC-272H	0.127		0.257	0.298	0.27	0.414	0.125	0.734	0.199	0.124	1.16	1.03	1.04	1.06	1.19	0.349	0.271	0.271	0.23	0.187
H3255	0.724	0.613	0.675	0.625	0.42	0.859	0.947	0.859	0.62	0.955	0.581	0.541	0.375	0.313	0.538	0.589	0.525	0.485	0.526	0.445
HARA	0.0918	0.121	0.114	0.0912	0.0839	0.995	0.654	0.779	0.772	0.707	1.22	1.07	1.13	1.15	1.22	0.372	0.394	0.493	0.314	0.23
HCC-15	0.325	0.367	0.272	0.328	0.333	0.379	0.492	0.479	0.238	0.192	0.768	0.772	0.695	0.824	0.729	0.766	0.721	0.778	0.712	0.467
HCC-44		0.908	0.874	0.109	0.664	1.28	1.12	1.17	1.06	1.03	1.12	0.958	0.988	0.891	1.06	0.665	0.597	0.609	0.533	0.571
HCC-78	0.482	0.396		0.43	0.505						1.01	0.682	0.787	0.744	0.641	0.227	0.281	0.195	0.223	0.188
HCC-366	0.168	0.17	0.0962	0.0839	0.0614						1.04	1.29	1.08	1.11	1.11	0.189	0.136	0.151	0.2	0.12

Cell Line	relative viability ([1]; first compound 0.08 µM)	relative viability ([1]; first compound 0.253 µM)	relative viability ([1]; first compound 0.8 µM)	relative viability ([1]; first compound 2.53 µM)	relative viability ([1]; first compound 8 µM)	relative viability ([2]; first compound 0.05 µM)	relative viability ([2]; first compound 0.1581 µM)	relative viability ([2]; first compound 0.5 µM)	relative viability ([2]; first compound 1.581 µM)	relative viability ([2]; first compound 5 µM)	relative viability ([3]; first compound 0.08 µM)	relative viability ([3]; first compound 0.253 µM)	relative viability ([3]; first compound 0.8 µM)	relative viability ([3]; first compound 2.53 µM)	relative viability ([3]; first compound 8 µM)	relative viability ([4]; first compound 0.05 µM)	relative viability ([4]; first compound 0.1581 µM)	relative viability ([4]; first compound 0.5 µM)	relative viability ([4]; first compound 1.581 µM)	relative viability ([4]; first compound 5 µM)
HCC-827	0.427	0.449	0.4	0.397	0.415	0.809	0.424	0.725	0.576	0.661	0.981	1.05	1.08	1.01	0.987	1.01	0.901	1.18	0.913	0.67
HOP-62	0.278	0.341	0.368	0.358	0.289	1	0.878	0.925	0.881	0.938	1.03	0.866	1.02	0.485	0.67	1.01	0.617	0.586	0.725	0.476
IA-LM											0.84	0.551	0.689	0.213	0.0967	0.387	0.317	0.339	0.3	0.179
LC-2-ad	0.405	0.428	0.431	0.209	0.434	1.16	1.06	0.973	0.992	0.952	0.445	0.463	0.37	0.341	0.42	0.533	0.352	0.569	0.413	0.332
LCLC-97TM1	0.151	0.188	0.192	0.168	0.18	0.883	0.743	0.811	0.667	0.677	0.628	0.334	0.57	0.131	0.431	0.297	0.187	0.13	0.148	0.123
LCLC-103H	0.451	0.453	0.486	0.451	0.389	0.958	0.943	0.998	1.07	0.739						0.684	0.714	0.585	0.657	0.622
LK-2		0.191	0.2	0.175	0.151	0.181	0.17	0.179	0.205	0.172	0.887	0.802	0.945		0.745	0.744	0.464	0.581	0.619	0.582
LOU-NH91	0.622	0.468	0.633	0.631	0.575	0.355	0.318	0.374	0.347	0.318	0.642	0.733	0.623	0.345	0.604	0.565	0.506	0.524	0.494	0.511
NCI-H358	0.0887	0.107	0.11	0.0927	0.085	0.487	0.202	0.418	0.196	0.321						0.32	0.24	0.354	0.313	0.365
NCI-H522	0.622	0.499	0.554	0.507	0.647	1.02	1.41	1.18	1.13	1.06										
NCI-H650	0.719	0.737	0.673	0.577	0.481	0.854	0.757	0.854	0.822	0.668						0.921	0.827	0.924	0.859	0.801
NCI-H661	0.388	0.369	0.341	0.362	0.337	0.904	0.907	0.904	0.953	0.725						0.469	0.529	0.421	0.344	0.383
NCI-H1299											1.03	1.08	1.05	1.07	0.968	0.896	0.738	0.826	0.592	0.398
NCI-H1563						0.521	0.526	0.527	0.536	0.506						0.581	0.665	0.737	0.651	0.605
NCI-H1623	0.339	0.402	0.395	0.396	0.579	0.594	0.514	0.517	0.456	0.502										
NCI-H1648	0.382	0.236	0.243	0.313	0.382															
NCI-H1703											1.02	1.08	0.964	0.406	0.291	0.296	0.262	0.267	0.237	0.193
NCI-H1792						0.25	0.462	0.447	0.571	0.377	0.351	0.438	0.725	0.654	0.327	0.29	0.249	0.266	0.284	0.265
NCI-H2342	0.437	0.409	0.478	0.496	0.436	0.721	0.712	0.642	0.767	0.806										
SW 900	0.573	0.568	0.479	0.279	0.377	0.192	0.174	0.2	0.178	0.19										
